Experiment [1] has as its target Adenosine A2 receptor (Homo sapiens, UniProt P29275+P29274). Kind of experiment: In vitro binding affinity to Adenosine A2 receptor of human platelets by inhibition of NECA-stimulated adenylate cyclase. It is filed as functional.
Experiment [2] concerns the target T1, Adenosine receptor A1 (Rattus norvegicus, UniProt P25099).
T1 sequence (P25099 whole entry): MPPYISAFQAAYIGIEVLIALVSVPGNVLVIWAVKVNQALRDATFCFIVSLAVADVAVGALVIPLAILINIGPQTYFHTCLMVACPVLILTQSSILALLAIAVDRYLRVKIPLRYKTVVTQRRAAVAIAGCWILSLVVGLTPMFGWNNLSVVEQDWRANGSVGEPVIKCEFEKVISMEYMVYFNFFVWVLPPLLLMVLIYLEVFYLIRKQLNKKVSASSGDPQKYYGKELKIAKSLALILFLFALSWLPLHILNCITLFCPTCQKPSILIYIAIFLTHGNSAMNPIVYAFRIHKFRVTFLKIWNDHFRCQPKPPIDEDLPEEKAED
Kind of experiment: In vitro binding affinity to Adenosine A1 receptor of rat cerebral cortical membranes using 1 nM [3H]PIA.

Experiment [3] is filed under the species Cavia porcellus. Kind of experiment: Reversal of spasmogen-induced contraction of guinea pig cylindrical tracheal segments induced by 5-hydroxytryptamine (2x 10e-6 M). The conditions noted are these: Trachea, read-out: ED50 (the source's name). In kind it is functional.
For experiment [4], the species on record is Cavia porcellus. Kind of experiment: Reversal of spasmogen-induced contraction of guinea pig cylindrical tracheal segments induced by acetylcholine (1 x 10e -5 M). The conditions noted are these: Trachea, read-out: ED50 (the source's name). It is filed as functional.
The species entered for experiment [5] is Cavia porcellus. Kind of experiment: Reversal of spasmogen-induced contraction of guinea pig cylindrical tracheal segments induced by histamine (1x […] -5 M). The following applies: Trachea, read-out: ED50 (the source's name). In kind it is functional.
For experiment [6], the species on record is Cavia porcellus. Kind of experiment: Reversal of spasmogen-induced contraction of guinea pig cylindrical tracheal segments induced by Carbachol (7.4 x 10e -7 M). In kind it is functional. The conditions noted are these: Trachea, read-out: ED50 (the source's name).
The species named for experiment [7] is Cavia porcellus. Kind of experiment: Reversal of spasmogen-induced contraction of guinea pig cylindrical tracheal segments induced by histamine (1 x 10e -5 M). In kind it is functional. The conditions noted are these: Trachea, read-out: ED50 (the source's name).
Experiment [8] has as its target Adenosine A2 receptor (Rattus norvegicus, UniProt P29276+P30543). As to the kind of experiment: Inhibition of adenosine stimulated accumulation of cyclic AMP at Adenosine A2 receptor of VA13 fibroblasts of rat. It is filed as functional.
Experiment [9] has as its target Adenosine A2 receptor (Cavia porcellus). As to the kind of experiment: Inhibition of 2-CADO-stimulated adenylate cyclase at Adenosine A2 receptor in guinea pig cerebral cortical slices.
The species named for experiment [10] is Cavia porcellus. Kind of experiment: Reversal of spasmogen-induced contraction of guinea pig cylindrical tracheal segments induced by acetylcholine (1*10e-5 M). It is filed as functional. The conditions noted are these: Trachea, read-out: ED50 (the source's name).
The species entered for experiment [11] is Cavia porcellus. As to the kind of experiment: Reversal of spasmogen-induced contraction of guinea pig cylindrical tracheal segments induced by Carbachol (7.4x 10e-7 M). It is filed as functional. The conditions noted are these: Trachea, read-out: ED50 (the source's name).
The target of experiment [12] is T1, Adenosine receptor A1. As to the kind of experiment: Binding of 1 nM [3H]CHA to Adenosine A1 receptor of rat cerebral cortical membranes. In kind it is cell membranes, Membrane.

Some results are limits rather than exact numbers.

We go through 13 molecules from ChEMBL document CHEMBL1123992, “Benzo[1,2-c:5,4-c']dipyrazoles: non-xanthine adenosine antagonists” (J Med Chem, 1988).

As to `Cc1n[nH]c2c([N+](=O)[O-])c3[nH]nc(C)c3cc12`, the Ki worked out at 14.4 µM in [1] and 1.9 µM in [2]. In addition, the EC50 in [3] was 1.5 µM; in [4], 25 µM; in experiment [5], 6.4 µM.

As to `Cc1nn(C)c2c(C)c3c(cc12)c(C)nn3C`, the Ki in [1] came out at 170 µM; in [2], 54 µM. For the same molecule, the results for the EC50 in experiment [3], in [6] and in experiment [5] were 20 µM, 9.6 µM and 38 µM, respectively.

On to `Cc1n[nH]c2c(Br)c3[nH]nc(C)c3cc12`, for which the EC50 worked out at 0.9 µM in experiment [3], 2 µM in experiment [4] and 3 µM in experiment [7].

For the molecule `CCn1c(=O)c2nc[nH]c2n(CC)c1=O`, the Ki in [8] stood at 1.2 µM; in experiment [9], 3 µM.

Consider `Cc1n[nH]c2c(C)c3[nH]nc(C)c3cc12`, for which the Ki in experiment [1] was determined as 4.8 µM; in experiment [2] it was 1.2 µM. The EC50 turned out to be 4.6 µM in experiment [3], 8.5 µM in [4] and 24 µM in experiment [5].

For the molecule `Cc1n[nH]c2cc3[nH]nc(C)c3cc12`, the results for the Ki in experiment [1] and in experiment [2] were 25.6 µM and 8 µM, respectively. For the same molecule, the EC50 in experiment [3] amounted to 2 µM; in experiment [10], 4 µM; in experiment [7] it was 1.4 µM.

On to `Cc1nn(C)c2cc3c(cc12)c(C)nn3C`, for which the inhibition constant (Ki) was 80 µM in [1] and more than 100 µM in experiment [2]. Besides, the figures for the EC50 in [3] and in [5] were 17 µM and 75 µM, respectively.

Consider `CCn1nc(C)c2cc3c(C)nn(CC)c3cc21`, for which the Ki was determined as 56 µM in experiment [1] and 27 µM in [2]. In addition, the EC50 worked out at 1.3 µM in experiment [3], 11 µM in experiment [6] and 5.2 µM in experiment [5].

In the case of `CCCn1nc(C)c2cc3c(C)nn(CCC)c3cc21`, the Ki in [1] was 32 µM; in experiment [2] it was 10.5 µM. Moreover, the EC50 in experiment [3] turned out to be 13 µM; in experiment [6], 69 µM; in experiment [5], 41 µM.

As to `CCn1nc(C)c2cc3c(C)nn(CC)c3c(C)c21`, the Ki in experiment [1] amounted to 53 µM; in experiment [2] it was 20 µM. For the same molecule, the EC50 was determined as 1 µM in experiment [11], 4.3 µM in experiment [4] and 4.1 µM in experiment [5].

Take `Cn1c(=O)[nH]c2[nH]cnc2c1=O` [1-METHYLXANTHINE]: the Ki in [12] stood at 9 µM; in experiment [8] it was 6.6 µM.

For `Cn1c(=O)c2[nH]cnc2n(C)c1=O` [AMINOPHYLLINE], the EC50 in experiment [3] turned out to be 21 µM; in experiment [4] it was 57 µM; in experiment [5], 42 µM.

In [8], `O=c1[nH]c(=O)c2nc[nH]c2[nH]1` [XANTHINE] returned a Ki of 130 µM.

By Ki is commonly meant the dissociation constant of the complex between target and ligand, obtained from inhibition or displacement.
